In patent US6506772B1, “Substituted [1,2,4]triazolo[1,5a]pyridine derivatives with activity as adenosine receptor ligands” (Hoffmann-La Roche Inc., priority 2000, dated 2003):
Where two headings read alike, the source gives them in different places.

Legend:
[1] = target: T1, human adenosine A2A receptor (Homo sapiens, UniProt P29274); assay: Human adenosine A2A receptor [3H]-SCH-58261 binding assay; conditions: for Ki: affinity to human adenosine A2A receptor, read-out: Ki HA2A; for selectivity (A1/A2a): calculated ratio of the affinity to the HA1 receptor to the HA2a receptor
T1 construct: expressed in transfected cells; host or cells: CHO cells, Semliki Forest virus expression system; membrane preparation
Procedure: Human Adenosine A2A Receptor
The human adenosine A2A receptor was recombinantly expressed in chinese hamster ovary (CHO) cells using the semliki forest virus expression system. Cells were harvested, washed twice by centrifugation, homogenized and again washed by centrifugation. The final washed membrane pellet was suspended in a Tris (50 mM) buffer containing 120 mM NaCl, 5 mM KCl, 2 mM CaCl2 and 10 MM MgCl2 (pH 7.4) (buffer A). […] Compounds were tested at 10 concentrations from 10 μM-0.3 nM. All assays were conducted in duplicate and repeated at least two times. Assay plates were incubated for 1 hour at room temperature before centrifugation and then bound ligand determined using a Packard Topcount scintillation counter. IC50 values were calculated using a non-linear curve fitting program and Ki values calculated using the Cheng-Prussoff equation.

HA1 adenosine receptor = target: T2, HA1 adenosine receptor (Homo sapiens, UniProt P30542); assay: Human adenosine A1 receptor affinity (Ki hA1); assay type: binding
T2 sequence (P30542 1-326): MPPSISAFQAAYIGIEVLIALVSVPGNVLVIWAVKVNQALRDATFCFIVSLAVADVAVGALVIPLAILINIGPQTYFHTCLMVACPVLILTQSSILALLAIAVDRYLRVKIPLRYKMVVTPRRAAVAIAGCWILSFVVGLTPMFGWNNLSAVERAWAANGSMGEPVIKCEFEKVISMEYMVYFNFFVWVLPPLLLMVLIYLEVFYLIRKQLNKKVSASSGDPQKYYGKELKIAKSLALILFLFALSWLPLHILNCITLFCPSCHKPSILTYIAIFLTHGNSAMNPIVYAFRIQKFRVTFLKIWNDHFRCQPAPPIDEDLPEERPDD

[2] = affinity to human adenosine A1 receptor

T1 sequence (P29274 whole entry): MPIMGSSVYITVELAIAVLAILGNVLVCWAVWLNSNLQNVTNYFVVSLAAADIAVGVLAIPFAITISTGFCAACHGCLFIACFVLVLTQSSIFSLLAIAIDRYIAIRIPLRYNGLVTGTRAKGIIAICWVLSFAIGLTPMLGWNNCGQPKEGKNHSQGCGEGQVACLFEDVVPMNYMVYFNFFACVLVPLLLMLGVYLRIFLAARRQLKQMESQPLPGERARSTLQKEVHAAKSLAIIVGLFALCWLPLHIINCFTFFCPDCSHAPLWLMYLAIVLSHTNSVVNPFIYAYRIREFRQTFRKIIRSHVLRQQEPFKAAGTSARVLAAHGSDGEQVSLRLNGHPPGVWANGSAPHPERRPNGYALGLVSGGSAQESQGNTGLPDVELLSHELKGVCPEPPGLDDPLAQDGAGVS

| Ki [1] | selectivity (A1/A2a) [1] | Ki (HA1 adenosine receptor; [2]) | Ki (HA1 adenosine receptor) | Structure (SMILES) |
| --- | --- | --- | --- | --- |
| 8.9 nM | 27.8 | 247 nM |  | CCN(C(=O)c1cc(N)n2nc(-c3ccc(C)s3)nc2c1)C1CCCCC1 [Example 24, 5-Amino-2-(5-methyl-thiophen-2-yl)-[1,2,4]triazolo[1,5-a]pyridine-7-carboxylic acid cyclohexyl-ethyl-amide] |
| 50.4 nM | 61.5 | 3100 nM |  | Nc1cc(C(=O)N2CCCC2)cc2nc(-c3nccs3)nn12 [Example 25, (5-Amino-2-thiazol-2-yl-[1,2,4]triazolo[1,5-a]pyridin-7-yl)-pyrrolidin-1-yl-methanone] |
| 2.3 nM | 13.0 | 30.1 nM |  | CC(C)N(Cc1ccccc1)C(=O)c1cc(N)n2nc(-c3ccc(Br)o3)nc2c1 [Example 26, 5-Amino-2-(5-bromo-furan-2-yl)-[1,2,4]triazolo[1,5-a]pyridine-7-carboxylic acid benzyl-isopropyl-amide] |
| 15.9 nM | 15.3 | 244 nM |  | CCN(Cc1ccccc1)C(=O)c1cc(N)n2nc(-c3ccccn3)nc2c1 [Example 29, 5-Amino-2-pyridin-2-yl-[1,2,4]triazolo[1,5-a]pyridine-7-carboxylic acid benzyl-ethyl-amide] |
| 212 nM | 10.1 | 2140 nM |  | Nc1cc(C(=O)N2CCc3ccccc3C2)cc2nc(-c3ccccn3)nn12 [Example 30, (5-Amino-2-pyridin-2-yl-[1,2,4]triazolo[1,5-a]pyridin-7-yl)-(3,4-dihydro-1H-isoquinolin-2-yl)-methanone] |
| 49.6 nM | 22.7 | 1130 nM |  | CCN(C(=O)c1cc(N)n2nc(-c3ccccn3)nc2c1)C1CCCCC1 [Example 31, 5-Amino-2-pyridin-2-yl-[1,2,4]triazolo[1,5-a]pyridine-7-carboxylic acid cyclohexyl-ethyl-amide] |
| 28.6 nM | 10.1 | 288 nM |  | CN(Cc1ccccc1)C(=O)c1cc(N)n2nc(-c3ccccn3)nc2c1 [Example 32, 5-Amino-2-pyridin-2-yl-[1,2,4]triazolo[1,5-a]pyridine-7-carboxylic acid benzyl-methyl-amide] |
| 87 nM | 13.5 | 1170 nM |  | CN(C(=O)c1cc(N)n2nc(-c3ccccn3)nc2c1)C1CCCCC1 [Example 33, 5-Amino-2-pyridin-2-yl-[1,2,4]triazolo[1,5-a]pyridine-7-carboxylic acid cyclohexyl-methyl-amide] |
| 154 nM | 38.8 | 5980 nM |  | Nc1cc(C(=O)N2CCCCC2)cc2nc(-c3ccccn3)nn12 [Example 34, (5-Amino-2-pyridin-2-yl-[1,2,4]triazolo[1,5-a]pyridin-7-yl)-piperidin-1-yl-methanone] |
| 106 nM | 27.5 | 2920 nM |  | CCN(CC)C(=O)c1cc(N)n2nc(-c3ccccn3)nc2c1 [Example 35, 5-Amino-2-pyridin-2-yl-[1,2,4]triazolo[1,5-a]pyridine-7-carboxylic acid diethylamide] |
| 13.1 nM | 15.2 | 199 nM |  | CCCCN(Cc1ccccc1)C(=O)c1cc(N)n2nc(-c3ccccn3)nc2c1 [Example 36, 5-Amino-2-pyridin-2-yl-[1,2,4]triazolo[1,5-a]pyridine-7-carboxylic acid benzyl-butyl-amide] |
| 23.8 nM | 4.6 | 109 nM |  | Nc1cc(C(=O)NCc2ccccc2Br)cc2nc(-c3ccccn3)nn12 [Example 38, 5-Amino-2-pyridin-2-yl-[1,2,4]triazolo[1,5-a]pyridine-7-carboxylic acid 2-bromo-benzylamide] |
| 16.8 nM | 4.2 | 69.8 nM |  | Nc1cc(C(=O)NCc2ccccc2Cl)cc2nc(-c3ccccn3)nn12 [Example 39, 5-Amino-2-pyridin-2-yl-[1,2,4]triazolo[1,5-a]pyridine-7-carboxylic acid 2-chloro-benzylamide] |
| 49.9 nM | 4.1 | 204 nM |  | Nc1cc(C(=O)NCCc2ccccc2F)cc2nc(-c3ccccn3)nn12 [Example 40, 5-Amino-2-pyridin-2-yl-[1,2,4]triazolo[1,5-a]pyridine-7-carboxylic acid [2-(2-fluoro-phenyl)-ethyl]-amide] |
| 21.8 nM | 4.0 | 88.1 nM |  | COc1ccccc1CNC(=O)c1cc(N)n2nc(-c3ccccn3)nc2c1 [Example 41, 5-Amino-2-pyridin-2-yl-[1,2,4]triazolo[1,5-a]pyridine-7-carboxylic acid 2-methoxy-benzylamide] |
| 87.7 nM | 2.3 | 203 nM |  | Nc1cc(C(=O)NCc2ccc(F)cc2)cc2nc(-c3ccccn3)nn12 [Example 43, 5-Amino-2-pyridin-2-yl-[1,2,4]triazolo[1,5-a]pyridine-7-carboxylic acid 4-fluoro-benzylamide] |
| 44.5 nM | 2.7 | 120 nM |  | CC(NC(=O)c1cc(N)n2nc(-c3ccccn3)nc2c1)c1ccccc1 (stereo not shown) [Example 44, 5-Amino-2-pyridin-2-yl-[1,2,4]triazolo[1,5-a]pyridine-7-carboxylic acid (1-phenyl-ethyl)-amide] |
|  |  | 1480 nM |  | Nc1cc(C(=O)N2CCCC2)cc2nc(-c3cccs3)nn12 [Example 128, (5-Amino-2-thiophen-2-yl-[1,2,4]triazolo[1,5-a]pyridin-7-yl)-pyrrolidin-1-yl-methanone] |
|  |  | 275 nM |  | CCCN(C)C(=O)c1cc(N)n2nc(-c3ccc(Br)o3)nc2c1 [Example 268, 5-Amino-2-(5-bromo-furan-2-yl)-[1,2,4]triazolo[1,5-a]pyridine-7-carboxylic acid methyl-propyl-amide] |
|  |  | 286 nM |  | CC1CCCN1C(=O)c1cc(N)n2nc(-c3ccc(Br)o3)nc2c1 (stereo not shown) [Example 270, [5-Amino-2-(5-bromo-furan-2-yl)-[1,2,4]triazolo[1,5-a]pyridin-7-yl]-(2-methyl-pyrrolidin-1-yl)-methanone] |
|  |  | 130 nM |  | CC1CCCN(C(=O)c2cc(N)n3nc(-c4ccc(Br)o4)nc3c2)C1 (stereo not shown) [Example 295, [5-Amino-2-(5-bromo-furan-2-yl)-[1,2,4]triazolo[1,5-a]pyridin-7-yl]-(3,-methyl-piperidin-1-yl)-methanone] |
|  |  | 253 nM |  | Nc1cc(C(=O)N2CCSCC2)cc2nc(-c3ccc(Br)o3)nn12 [Example 297, [5-Amino-2-(5-bromo-furan-2-yl)-[1,2,4]triazolo[1,5-a]pyridin-7-yl]-thiomorpholin-4-yl-methanone] |
|  |  | 87.8 nM |  | CN(CCc1ccccc1)C(=O)c1cc(N)n2nc(-c3ccc(Br)o3)nc2c1 [Example 306, 5-Amino-2-(5-bromo-furan-2-yl)-[1,2,4]triazolo[1,5-a]pyridine-7-carboxylic acid methyl-phenethyl-amide] |
|  |  | 65.7 nM |  | CC1CCCCN1C(=O)c1cc(N)n2nc(-c3ccc(Br)o3)nc2c1 (stereo not shown) [Example 336, [5-Amino-2-(5-bromo-furan-2-yl)-[1,2,4]triazolo[1,5-a]pyridin-7-yl]-(2-methyl-piperidin-1-yl)-methanone] |
|  |  | 144 nM |  | CCN(CCc1ccccn1)C(=O)c1cc(N)n2nc(-c3ccc(Br)o3)nc2c1 [Example 352, 5-Amino-2-(5-bromo-furan-2-yl)-[1,2,4]triazolo[1,5-a]pyridine-7-carboxylic acid ethyl-(2-pyridin-2-yl-ethyl)-amide] |
|  |  | 1060 nM |  | CCN(CC)C(=O)C1CCCN(C(=O)c2cc(N)n3nc(-c4ccc(Br)o4)nc3c2)C1 (stereo not shown) [Example 356, 1-[5-Amino-2-(5-bromo-furan-2-yl)-[1,2,4]triazolo[1,5-a]pyridin-7-carbonyl]-piperidine-3-carboxylic acid diethylamide] |
|  |  |  | 711 nM | CN(C)C(=O)CN(C)C(=O)c1cc(N)n2nc(-c3ccc(Br)o3)nc2c1 [Example 384, 5-Amino-2-(5-bromo-furan-2-yl)-[1,2,4]triazolo[1,5-a]pyridine-7-carboxylic acid dimethylcarbamoylmethyl-methyl-amide] |
|  |  |  | 616 nM | COC[C@@H]1CCCN1C(=O)c1cc(N)n2nc(-c3ccc(Br)o3)nc2c1 [Example 385, [5-Amino-2-(5-bromo-furan-2-yl)-[1,2,4]triazolo[1,5-a]pyridin-7-yl]-(S-2-methoxymethyl-pyrrolidin-1-yl)-methanone] |
|  |  |  | 292 nM | COC[C@H]1CCCN1C(=O)c1cc(N)n2nc(-c3ccc(Br)o3)nc2c1 [Example 386, [5-Amino-2-(5-bromo-furan-2-yl)-[1,2,4]triazolo[1,5-a]pyridin-7-yl]-(R-2-methoxymethyl-pyrrolidin-1-yl)-methanone] |
|  |  |  | 1450 nM | Nc1cc(C(=O)N2CCCC2)cc2nc(-c3ccccn3)nn12 [Example 410, (5-Amino-2-pyridin-2-yl-[1,2,4]triazolo[1,5-a]pyridin-7-yl)-pyrrolidin-1-yl-methanone] |
